Data: patent US8952024B2, “Herbicidal pyrimidone derivatives” (E I du Pont de Nemours and Company, priority 2009, dated 2015)

How the values were obtained:
Type in all cases: in vivo
[1] = tested on: chickweed (Stellaria media); assay: Test B postemergence plant response
Outline: (§1)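 Visual ratings from 0 (no effect) to 100 (complete control), made against controls 13–15 days after treatment, kept in a greenhouse. Compounds were applied postemergence to potted plants at the 1- to 4-leaf stage (2–18 cm).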

[2] = tested on: canarygrass (Phalaris minor); assay: Test B postemergence plant response
Outline: as §1

[3] = tested on: windgrass (Apera spica-venti); assay: Test B postemergence plant response; settings: for Plant response rating, Windgrass: Postemergence
Outline: as §1

[4] = tested on: bermudagrass (Cynodon dactylon); assay: Test B pre-/postemergence plant response
Outline: (§2)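 Steps: sow seed in loam–sand soil and spray preemergence, or grow plants in peat-based medium to 1–4 leaves (2–18 cm) and spray postemergence; formulation is non-phytotoxic solvent plus surfactant; hold in greenhouse 13–15 days; score visually vs controls, 0 = no effect, 100 = complete control.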

[5] = tested on: johnsongrass (Sorghum halepense); assay: Test B pre-/postemergence plant response
Outline: as §2

[6] = tested on: green foxtail (Setaria viridis); assay: Test B pre-/postemergence plant response
Outline: as §2

[7] = tested on: blackgrass (Alopecurus myosuroides); assay: Test B pre-/postemergence plant response
Outline: as §2

[8] = tested on: wild oat (Avena fatua); assay: Test B pre-/postemergence plant response
Outline: as §2

[9] = tested on: morningglory (Ipomoea coccinea); assay: Test B pre-/postemergence plant response
Outline: as §2

[10] = tested on: ragweed (common ragweed, Ambrosia elatior); assay: Test B pre-/postemergence plant response
Outline: as §2

[11] = tested on: velvetleaf (Abutilon theophrasti); assay: Test B pre-/postemergence plant response
Outline: as §2

[12] = tested on: giant foxtail (Setaria faberii); assay: Test B pre-/postemergence plant response
Outline: as §2

[13] = tested on: yellow nutsedge (Cyperus esculentus); assay: Test B pre-/postemergence plant response
Outline: as §2

[14] = tested on: kochia (Kochia scoparia); assay: Test B pre-/postemergence plant response
Outline: as §2

[15] = tested on: wheat (Triticum aestivum); assay: Test B pre-/postemergence plant response
Outline: as §2

[16] = tested on: soybean (Glycine max); assay: Test B pre-/postemergence plant response
Outline: as §2

[17] = tested on: downy bromegrass (Bromus tectorum); assay: Test B pre-/postemergence plant response
Outline: as §2

[18] = tested on: cocklebur (Xanthium strumarium); assay: Test B pre-/postemergence plant response
Outline: as §2

[19] = Postemergence, 31 g ai/ha, scale 0 to 100 (0 no effect, 100 complete control)
[20] = Postemergence, 62 g ai/ha, scale 0 (no effect) to 100 (complete control), 13 to 15 days
[21] = Postemergence, 125 g ai/ha, visual rating after 13 to 15 days, scale 0 (no effect) to 100 (complete control)
[22] = Postemergence, 250 g ai/ha, scale 0 to 100
[23] = 250 g ai/ha, Preemergence, 0 to 100 scale
[24] = Preemergence, 31 g ai/ha, scale 0 to 100 (0 no effect, 100 complete control)
[25] = Preemergence, 62 g ai/ha, scale 0 to 100, 0 no effect, 100 complete control
[26] = Preemergence, 125 g ai/ha, 0 to 100 scale
[27] = 31 g ai/ha, postemergence, scale 0 to 100, 0 is no effect, 100 is complete control
[28] = 62 g ai/ha, postemergence, 0 is no effect, 100 is complete control, 13 to 15 days
[29] = Postemergence, 125 g ai/ha, scale 0 to 100 (0 no effect, 100 complete control)
[30] = Postemergence, 250 g ai/ha, scale 0 to 100 (0 no effect, 100 complete control)

Cc1cccc(-n2c(-c3cccc(Cl)c3)ncc(C(=O)C3=C(O)CCCC3=O)c2=O)c1 [Compound 45]
Plant response rating, Chickweed [1, 19]: 75
Plant response rating, Chickweed [1, 20]: 85
Plant response rating, Chickweed [1, 21]: 98
Chickweed plant response rating [1, 22]: 100
Plant response rating, Canarygrass [2, 19]: 10
Plant response rating, Canarygrass [2, 20]: 10
Plant response rating, Canarygrass [2, 21]: 30
Canarygrass plant response rating [2, 22]: 30
Plant response rating, Windgrass ([3]; 62 g ai/ha, scale 0 (no effect) to 100 (complete control), 13 to 15 days): 60
Plant response rating, Windgrass ([3]; 125 g ai/ha, visual rating after 13 to 15 days, scale 0 (no effect) to 100 (complete control)): 70
Plant response rating, Bermudagrass [4, 23]: 100
Plant response rating, Bermudagrass [4, 19]: 80
Plant response rating, Bermudagrass [4, 20]: 85
Plant response rating, Bermudagrass [4, 21]: 95
Bermudagrass plant response rating [4, 22]: 100
Plant response rating, Bermudagrass [4, 24]: 98
Plant response rating, Bermudagrass [4, 25]: 100
Bermudagrass plant response rating [4, 26]: 100
Plant response rating, Johnsongrass [5, 23]: 85
Plant response rating, Johnsongrass [5, 20]: 90
Plant response rating, Johnsongrass [5, 21]: 98
Johnsongrass plant response rating [5, 22]: 100
Plant response rating, Johnsongrass [5, 24]: 0
Plant response rating, Johnsongrass [5, 25]: 45
Johnsongrass plant response rating [5, 26]: 75
Plant response rating, Foxtail, Green [6, 23]: 100
Plant response rating, Foxtail, Green [6, 19]: 50
Plant response rating, Foxtail, Green [6, 20]: 80
Plant response rating, Foxtail, Green [6, 21]: 85
Foxtail, Green plant response rating [6, 22]: 95
Plant response rating, Foxtail, Green [6, 24]: 0
Plant response rating, Foxtail, Green [6, 25]: 80
Foxtail, Green plant response rating [6, 26]: 80
Plant response rating, Blackgrass [7, 23]: 5
Plant response rating, Blackgrass [7, 19]: 5
Plant response rating, Blackgrass [7, 20]: 5
Plant response rating, Blackgrass [7, 21]: 10
Blackgrass plant response rating [7, 22]: 25
Plant response rating, Blackgrass [7, 24]: 0
Plant response rating, Blackgrass [7, 25]: 0
Blackgrass plant response rating [7, 26]: 0
Plant response rating, Oat, Wild [8, 23]: 5
Plant response rating, Oat, Wild [8, 20]: 55
Plant response rating, Oat, Wild [8, 21]: 60
Plant response rating, Oat, Wild [8, 24]: 0
Oat, Wild plant response rating [8, 26]: 0
Plant response rating, Morningglory [9, 23]: 0
Plant response rating, Morningglory [9, 20]: 75
Plant response rating, Morningglory [9, 21]: 80
Plant response rating, Morningglory [9, 24]: 0
Plant response rating, Ragweed [10, 23]: 95
Plant response rating, Ragweed [10, 20]: 85
Plant response rating, Ragweed [10, 21]: 95
Plant response rating, Ragweed [10, 24]: 45
Ragweed plant response rating [10, 26]: 80
Plant response rating, Velvetleaf [11, 23]: 95
Plant response rating, Velvetleaf [11, 20]: 80
Plant response rating, Velvetleaf [11, 21]: 90
Plant response rating, Velvetleaf [11, 24]: 0
Velvetleaf plant response rating [11, 26]: 85
Plant response rating, Foxtail, Giant [12, 23]: 75
Plant response rating, Foxtail, Giant [12, 19]: 75
Plant response rating, Foxtail, Giant [12, 20]: 90
Plant response rating, Foxtail, Giant [12, 21]: 95
Foxtail, Giant plant response rating [12, 22]: 98
Plant response rating, Foxtail, Giant [12, 24]: 0
Plant response rating, Foxtail, Giant [12, 25]: 0
Foxtail, Giant plant response rating [12, 26]: 45
Plant response rating, Nutsedge, Yellow [13, 23]: 70
Plant response rating, Nutsedge, Yellow [13, 20]: 10
Plant response rating, Nutsedge, Yellow [13, 21]: 45
Plant response rating, Nutsedge, Yellow [13, 24]: 0
Nutsedge, Yellow plant response rating [13, 26]: 20
Plant response rating, Kochia [14, 20]: 0
Plant response rating, Kochia [14, 21]: 15
Kochia plant response rating [14, 22]: 98
Plant response rating, Wheat [15, 23]: 0
Plant response rating, Wheat [15, 20]: 15
Plant response rating, Wheat [15, 21]: 15
Plant response rating, Wheat [15, 24]: 0
Wheat plant response rating [15, 26]: 0
Plant response rating, Soybean [16, 23]: 0
Plant response rating, Soybean [16, 20]: 95
Plant response rating, Soybean [16, 21]: 98
Plant response rating, Soybean [16, 24]: 0
Soybean plant response rating [16, 26]: 0
Plant response rating, Bromegrass, Downy [17, 23]: 5
Plant response rating, Bromegrass, Downy [17, 19]: 10
Plant response rating, Bromegrass, Downy [17, 20]: 20
Plant response rating, Bromegrass, Downy [17, 21]: 45
Bromegrass, Downy plant response rating [17, 22]: 50
Plant response rating, Bromegrass, Downy [17, 24]: 0
Plant response rating, Bromegrass, Downy [17, 25]: 0
Bromegrass, Downy plant response rating [17, 26]: 0
Plant response rating, Cocklebur [18, 19]: 10
Plant response rating, Cocklebur [18, 20]: 50
Plant response rating, Cocklebur [18, 21]: 70
Cocklebur plant response rating [18, 22]: 95

O=C1CCCC(O)=C1C(=O)c1cnc(-c2cccs2)n(CC2CCCO2)c1=O (stereo not drawn) [Compound 109]
Plant response rating, Chickweed [1, 27]: 90
Chickweed plant response rating (0 to 100 scale) [1, 28]: 98
Plant response rating, Chickweed [1, 29]: 98
Plant response rating, Chickweed [1, 30]: 100
Plant response rating, Canarygrass [2, 27]: 0
Canarygrass plant response rating (0 to 100 scale) [2, 28]: 0
Plant response rating, Canarygrass [2, 29]: 30
Plant response rating, Canarygrass [2, 30]: 45
Windgrass plant response rating (0 to 100 scale) [3, 28]: 40
Plant response rating, Windgrass ([3]; 125 g ai/ha, scale 0 to 100 (0 no effect, 100 complete control)): 60
Plant response rating, Bermudagrass [4, 27]: 70
Bermudagrass plant response rating (0 to 100 scale) [4, 28]: 85
Plant response rating, Bermudagrass [4, 29]: 90
Plant response rating, Bermudagrass [4, 30]: 95
Plant response rating, Johnsongrass [5, 27]: 5
Johnsongrass plant response rating (0 to 100 scale) [5, 28]: 30
Plant response rating, Johnsongrass [5, 29]: 50
Plant response rating, Johnsongrass [5, 30]: 75
Plant response rating, Foxtail, Green [6, 27]: 20
Foxtail, Green plant response rating (0 to 100 scale) [6, 28]: 80
Plant response rating, Foxtail, Green [6, 29]: 85
Plant response rating, Foxtail, Green [6, 30]: 98
Plant response rating, Blackgrass [7, 27]: 0
Blackgrass plant response rating (0 to 100 scale) [7, 28]: 5
Plant response rating, Blackgrass [7, 29]: 40
Plant response rating, Blackgrass [7, 30]: 50
Plant response rating, Oat, Wild [8, 27]: 0
Oat, Wild plant response rating (0 to 100 scale) [8, 28]: 0
Plant response rating, Oat, Wild [8, 29]: 30
Plant response rating, Oat, Wild [8, 30]: 40
Plant response rating, Morningglory [9, 27]: 70
Morningglory plant response rating (0 to 100 scale) [9, 28]: 98
Plant response rating, Morningglory [9, 29]: 100
Plant response rating, Morningglory [9, 30]: 100
Ragweed plant response rating (0 to 100 scale) [10, 28]: 95
Plant response rating, Ragweed [10, 29]: 95
Plant response rating, Ragweed [10, 30]: 98
Velvetleaf plant response rating (0 to 100 scale) [11, 28]: 98
Plant response rating, Velvetleaf [11, 29]: 100
Plant response rating, Velvetleaf [11, 30]: 100
Plant response rating, Foxtail, Giant [12, 27]: 70
Foxtail, Giant plant response rating (0 to 100 scale) [12, 28]: 75
Plant response rating, Foxtail, Giant [12, 29]: 80
Plant response rating, Foxtail, Giant [12, 30]: 90
Nutsedge, Yellow plant response rating (0 to 100 scale) [13, 28]: 65
Plant response rating, Nutsedge, Yellow [13, 29]: 75
Plant response rating, Nutsedge, Yellow [13, 30]: 80
Plant response rating, Kochia [14, 27]: 70
Kochia plant response rating (0 to 100 scale) [14, 28]: 75
Plant response rating, Kochia [14, 29]: 85
Plant response rating, Kochia [14, 30]: 98
Wheat plant response rating (0 to 100 scale) [15, 28]: 5
Plant response rating, Wheat [15, 29]: 5
Soybean plant response rating (0 to 100 scale) [16, 28]: 95
Plant response rating, Soybean [16, 29]: 98
Plant response rating, Soybean [16, 30]: 100
Plant response rating, Bromegrass, Downy [17, 27]: 0
Bromegrass, Downy plant response rating (0 to 100 scale) [17, 28]: 0
Plant response rating, Bromegrass, Downy [17, 29]: 5
Plant response rating, Bromegrass, Downy [17, 30]: 5
Plant response rating, Cocklebur [18, 27]: 75
Cocklebur plant response rating (0 to 100 scale) [18, 28]: 98
Plant response rating, Cocklebur [18, 29]: 100
Plant response rating, Cocklebur [18, 30]: 100
